Reference: ChEMBL document CHEMBL1201862, “PubChem BioAssay data set” (2004)
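How tested: cells in 96-well plates exposed to compound for 48 hours at five concentrations. GI50 marks 50% less growth.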 Active and inactive are the calls of the source. No stated cut-off is given here; in the data, active = GI50 up to about 1.1 µM and inactive = higher.

Experiments:
Assay in all cases: growth of human tumour cells (NCI), 48 h
786-0 = test system: 786-0
A498 = test system: A498
A549 = test system: A549
ACHN = test system: ACHN
BT-549 = test system: BT-549
CAKI-1 = test system: CAKI-1
CCRF-CEM = test system: CCRF-CEM
COLO 205 = test system: COLO 205
DU-145 = test system: DU-145
EKVX = test system: EKVX
HCT-116 = test system: HCT-116
HCT-15 = test system: HCT-15
HL-60 = test system: HL-60
HOP-62 = test system: HOP-62
HOP-92 = test system: HOP-92
HT-29 = test system: HT-29
Hs-578T = test system: Hs-578T
IGROV-1 = test system: IGROV-1
K562 = test system: K562
KM12 = test system: KM12
LOX IMVI = test system: LOX IMVI
M14 = test system: M14
MCF7 = test system: MCF7
MDA-MB-231 = test system: MDA-MB-231
MDA-MB-435 = test system: MDA-MB-435
MDA-N = test system: MDA-N
MOLT-4 = test system: MOLT-4
Malme-3M = test system: Malme-3M
NCI-H226 = test system: NCI-H226
NCI-H23 = test system: NCI-H23
NCI-H460 = test system: NCI-H460
NCI-H522 = test system: NCI-H522
NCI/ADR-RES = test system: NCI/ADR-RES
OVCAR-3 = test system: OVCAR-3
OVCAR-4 = test system: OVCAR-4
OVCAR-5 = test system: OVCAR-5
OVCAR-8 = test system: OVCAR-8
PC-3 = test system: PC-3
RPMI-8226 = test system: RPMI-8226
RXF 393 = test system: RXF 393
SF-268 = test system: SF-268
SF-295 = test system: SF-295
SF-539 = test system: SF-539
SK-MEL-28 = test system: SK-MEL-28
SK-MEL-2 = test system: SK-MEL-2
SK-MEL-5 = test system: SK-MEL-5
SK-OV-3 = test system: SK-OV-3
SN12C = test system: SN12C
SNB-19 = test system: SNB-19
SNB-75 = test system: SNB-75
SR = test system: SR
SW-620 = test system: SW-620
T47D = test system: T47D
TK-10 = test system: TK-10
U-251 = test system: U-251
UACC-257 = test system: UACC-257
UACC-62 = test system: UACC-62
UO-31 = test system: UO-31

Measured: GI50

Cn1c(=O)c2nc(COCc3nc4c(=O)n(C)c(=O)n(C)c4[nH]3)[nH]c2n(C)c1=O
> 100 µM: HCT-15
inactive: 786-0 > 100 µM | A498 > 100 µM | A549 > 100 µM | ACHN > 100 µM | BT-549 > 100 µM | CAKI-1 > 100 µM | CCRF-CEM > 100 µM | COLO 205 > 100 µM | DU-145 > 100 µM | EKVX > 100 µM | HCT-116 > 100 µM | HL-60 > 100 µM | HOP-62 > 100 µM | HOP-92 > 100 µM | HT-29 > 100 µM | Hs-578T > 100 µM | IGROV-1 > 100 µM | K562 > 100 µM | KM12 > 100 µM | LOX IMVI > 100 µM | M14 > 100 µM | MCF7 > 100 µM | MDA-MB-231 > 100 µM | MDA-MB-435 > 100 µM | MDA-N > 100 µM | MOLT-4 > 100 µM | Malme-3M > 100 µM | NCI-H226 > 100 µM | NCI-H23 > 100 µM | NCI-H460 > 100 µM | NCI-H522 > 100 µM | NCI/ADR-RES > 100 µM | OVCAR-3 > 100 µM | OVCAR-4 > 100 µM | OVCAR-5 > 100 µM | OVCAR-8 > 100 µM | PC-3 > 100 µM | RPMI-8226 > 100 µM | RXF 393 > 100 µM | SF-268 > 100 µM | SF-295 > 100 µM | SF-539 > 100 µM | SK-MEL-28 > 100 µM | SK-MEL-2 > 100 µM | SK-MEL-5 > 100 µM | SK-OV-3 > 100 µM | SN12C > 100 µM | SNB-19 > 100 µM | SNB-75 > 100 µM | SR > 100 µM | SW-620 > 100 µM | T47D > 100 µM | TK-10 > 100 µM | U-251 > 100 µM | UACC-257 > 100 µM | UACC-62 > 100 µM | UO-31 > 100 µM

CN(C)CC(C)(C)CN1c2ccccc2Sc2ccccc21
> 100 µM: HCT-15
inactive: 786-0 12.9 µM | A498 13.6 µM | A549 15.5 µM | ACHN 15.1 µM | BT-549 14 µM | CAKI-1 12.1 µM | COLO 205 12.2 µM | DU-145 12.4 µM | EKVX 15.4 µM | HCT-116 13.8 µM | HOP-62 12.9 µM | HOP-92 11.8 µM | HT-29 10.8 µM | Hs-578T 14 µM | IGROV-1 14.9 µM | K562 8.55 µM | KM12 12.8 µM | LOX IMVI 13.6 µM | M14 10.4 µM | MCF7 16.4 µM | MDA-MB-231 12 µM | MDA-MB-435 13.4 µM | MDA-N 15 µM | MOLT-4 6.55 µM | Malme-3M 14.8 µM | NCI-H226 18 µM | NCI-H23 16.4 µM | NCI-H460 13.5 µM | NCI-H522 13.2 µM | NCI/ADR-RES 12.7 µM | OVCAR-3 11.9 µM | OVCAR-4 12.9 µM | OVCAR-5 14.8 µM | OVCAR-8 15.3 µM | PC-3 12.9 µM | RPMI-8226 16.4 µM | RXF 393 2.12 µM | SF-268 14.5 µM | SF-295 13.8 µM | SF-539 19.7 µM | SK-MEL-28 13.5 µM | SK-MEL-2 15.4 µM | SK-MEL-5 16 µM | SK-OV-3 13.2 µM | SN12C 12.9 µM | SNB-19 15.6 µM | SNB-75 4.28 µM | SR 10.1 µM | SW-620 15 µM | T47D 14.2 µM | TK-10 13.9 µM | U-251 13.6 µM | UACC-257 12 µM | UACC-62 14.9 µM
